According to patent US20240358734A1, “DISCOVERY OF NOVEL TRPV1 CHANNEL BLOCKERS BY HIGH-THROUGHPUT SCREENING OF MARINE NATURAL PRODUCTS” (The Hong Kong University of Science and Technology, priority 2023, published 2024):
“Also recorded” adds a separate entry of the source.

Legend:
human TRPV1 = biological target: T1, human TRPV1 (Homo sapiens, UniProt Q8NER1); assay: High-throughput FM4-64 dye-uptake assay in HEK293 cells transfected with hTRPV1-pIRES-eGFP; assay type: cell-based; details: for inhibitory effect on TRPV1 (relative n2/n1 ratio compared to vehicle control): screening, 5 μM FM4-64 dye and 100 μg/ml test compounds for 3 minutes, vs DMSO; for mean n2/n1 ratio: HEK293 cells transfected with human TRPV1, 96-well plate, groups incubated with drug, compared to capsaicin alone; for IC50: 1 μM capsaicin, 5 μM FM4-64, 3-minute incubation, cell-based system
T1 construct: expressed in transfected cells; host or cells: HEK293 (HEK293T) cells
T1 sequence (Q8NER1 whole entry): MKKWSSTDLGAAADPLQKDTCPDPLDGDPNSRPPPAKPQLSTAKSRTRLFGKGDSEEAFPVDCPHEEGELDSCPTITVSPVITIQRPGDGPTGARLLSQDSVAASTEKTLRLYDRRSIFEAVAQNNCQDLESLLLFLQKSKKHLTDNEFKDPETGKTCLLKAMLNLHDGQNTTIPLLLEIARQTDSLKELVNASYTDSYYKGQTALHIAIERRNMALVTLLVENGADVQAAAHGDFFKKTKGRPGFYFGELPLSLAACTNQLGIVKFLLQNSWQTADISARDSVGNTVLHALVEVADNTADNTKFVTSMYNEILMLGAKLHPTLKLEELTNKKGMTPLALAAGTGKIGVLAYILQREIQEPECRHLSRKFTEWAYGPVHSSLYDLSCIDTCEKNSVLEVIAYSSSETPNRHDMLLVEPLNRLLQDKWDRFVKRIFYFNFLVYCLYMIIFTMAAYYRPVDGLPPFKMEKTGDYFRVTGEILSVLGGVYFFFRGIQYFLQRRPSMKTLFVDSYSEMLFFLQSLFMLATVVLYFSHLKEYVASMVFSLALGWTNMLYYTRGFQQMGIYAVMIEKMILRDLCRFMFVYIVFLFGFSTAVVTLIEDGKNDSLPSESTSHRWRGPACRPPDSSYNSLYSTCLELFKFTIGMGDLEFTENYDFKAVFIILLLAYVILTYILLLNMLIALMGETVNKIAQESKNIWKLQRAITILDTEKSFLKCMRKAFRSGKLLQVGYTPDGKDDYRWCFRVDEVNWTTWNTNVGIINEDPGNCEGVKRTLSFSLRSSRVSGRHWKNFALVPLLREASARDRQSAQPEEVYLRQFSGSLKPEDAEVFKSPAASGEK
Description: To screen potential modulators of TRPV1, a high-throughput screening system based on FM4-64 dye uptake was established using HEK293 cells transfected with hTRPV1-pIRES-eGFP and cultured in 96-well plates. The cells are incubation with 5 μM FM4-64 dye and 100 μg/ml test compounds for 3 minutes, washed, imaged using Zeiss Celldiscoverer 7, and analyzed using Image J (FIG. 2A). The number of GFP positive cells which is an indicator of the number of TRPV1 expressed cells, is calculated as n1 and the number of cells which are both GFP positive and dye uptake positive is calculated as n2 (FIG. 2B). The ratio (n2/n1) is a functional indicator of TRPV1 channel activity.
The performance of cC and cF with capsaicin and capsazepine, with HEK293 cells transfected with human TRPV1 and cultured on a 96-well plate are compared by the n2/n1 ratio of the groups incubated with cC and cF to those incubated with capsaicin alone and capsazepine (FIG. 3B).
The assay involves mixing 1 μM of capsaicin with varying concentrations of cC and 5 μM of FM4-64, and the mixture is added to each well for a 3-minute incubation.
Transfected HEK293 cells in a 96-well plate were divided into 8 groups, each containing 12 wells. 10-11 wells of each group were set as experimental groups in which cells were incubated with compound mixtures. 1-2 wells of each group were set as control groups in which cells were incubated with control solution A or B. One group was operated simultaneously to reduce the difference between wells. Cells in DMEM were washed with CaCl2-HBSS buffer once to remove the remnant medium. Subsequently, cells were incubated with the compound mixture or control solution for 2-3 min at RT. After FM4-64 incubation, cells were washed with CaCl2-HBSS buffer thrice to remove FM4-64 residuals. A group of cells was subjected to Zeiss Celldiscoverer 7 for fluorescent imaging.
To separate GFP and FM4-64 fluorescent dye, we used an LED light source at 470 nm to excite the GFP channel and light at 567 nm to excite the FM4-64 channel. 5× objective (Plan Apo, dry, autocorrect, NA 0.35), Orca camera (Orca Flash 4.0 v3), CO2 Module S1 incubation system, and Zenblue software were used for image recording. Each image comprises a GFP channel, FM4-64 channel, and bright field channel. And 4 non-overlapping images were taken for each well using the Tile function at Zenblue.
All images were analysed with ImageJ software. The same threshold would be applied to all the images in the same experiment group to select GFP-positive and dye uptake-positive cells. Cell number was calculated by the “Analyze particle” function in ImageJ. GFP-positive and dye uptake-positive cells were selected using the “AND” function in the image calculator. The number of GFP-positive cells (TRPV1 expressed cells) would be calculated as N1, and the number of cells that are both GFP positive and dye uptake positive would be calculated as N2. The ratio of […] represents the percentage of TRPV1 expressed cells that uptake FM4-64 fluorescent dye and would be used to analyse TRPV1's function.

[1] = tested on: capsaicin-/TRPV1-induced pain sensation; assay: Capsaicin-induced pain-sensation assay (paw-licking) in mice; assay type: in vivo, mice (C57B/6J); details: for mean licking time: drug mixed with capsaicin injected into right hind paw, 5 minutes observation
Description: The total time spent paw-licking, a typical nociception behaviour in mice, was recorded as an indicator of TRPV1 activation and compared with a positive control group injected with capsaicin alone. The potency of the injected drugs is related to the reduction of licking time.
The mice used were 4-6 weeks old C57B/6J provided by APCF in HKUST. All animal procedures were approved by the University Committee on Research Practices of the Hong Kong University of Science and Technology (Ethics protocol number: 2016074).
Capsaicin-induced pain-sensation assays in mice were performed where 10 μL of capsaicin (300 μM) or solvent control was injected into the top of the hind paw by using a fine (30-G) needle; capsaicin was dissolved in 0.3% ethanol and 3% (v/v) dimethyl sulfoxide (DMSO). The mice were wrapped gently in the investigator's hand and maintained on their back, with their snout pointing toward the small finger of the investigator; in this position, the mice remained unagitated during the injection. Mouse behavior was recorded using a digital camera (GoPro5).
The observation cage was made with the transparent large cage liner from APCF with bedding and food at the bottom. Mice were placed in the observation cage for 10 minutes at least 1 hour before the experiment was conducted to reduce the stress bought on by an unfamiliar environment. During the experiment, mice were captured by the left hand using the index finger and thumb to hold their neck. Then gradually pick up the mice and use the little finger to anchor its tail, such that its right hind paw will step on the ring finger or middle finger. Drugs were prepared in a 1.5 mL test tube. For the control group, 1 mM stock Capsaicin in DMSO is diluted to 100 μM using PBS. For the testing group, drugs originally dissolved in DMSO were diluted to the desired concentration in addition to capsaicin.
The injection was performed by shaking and spinning the drug-containing test tube for an even concentration of drug. A BD Ultra-fine 6 mm needle was used to suck out the 10 μL of drug from the needle. After removing excess air bubbles, 10 μL of the drug was injected into the captured mice's back of the right hind paw. The needle was removed slowly to inhibit blood and drug from leaking from the wound. After injection, mice were placed in the observation cage for 5 minutes to record the pain behavior. Video was filmed using a camera with the configuration of HD 30 fps. The environmental noise, light, and temperature are constant throughout the record. The mice's behavior was identified by experienced individuals who mapped pain behavior in seconds throughout the 5 minutes.

TRPV1 channel (hTRPV1) = biological target: T2, TRPV1 channel (hTRPV1) (Homo sapiens, UniProt Q8NER1); assay: Excised inside-out patch-clamp of 3T3 cells transfected with hTRPV1-IRES-EGFP; assay type: cell-based; details: for inhibition of TRPV1 channels in patch-clamp macroscopic current: 10 nM capsaicin activation followed by 20 μM drug
T2 construct: expressed in transfected cells; host or cells: 3T3 cells
T2 sequence (Q8NER1 whole entry): as above
Excerpt: A cell-based high-throughput drug screening method identifies potential TRPV1 inhibitors using the FM4-64 dye-uptake assay though the assay cannot conclusively distinguish the specific mechanism of blockage as numerous factors, such as other channels, pinocytosis, and drug-induced membrane potential alteration via pore-forming, can contribute to changes in FM4-64 dye uptake. A high-resolution patch clamp assays using an excised inside-out recording configuration allows investigation of the potential inhibitory effect of cC and cF on TRPV1, where changes in the patch-clamp macroscopic current before and after drug application indicates drug effectiveness.
3T3 cells were recorded using excised inside-out voltage clamp. Patch electrodes with a resistance of 4 MΩ±1.1 MΩ were pulled on a glass pipette puller (DMZ Zeitz-Puller). 3T3 cells were first transferred to a patch container to minimize the use of drugs and transfected with hTRPV1-IRES-EGFP. Immediately before assay, the cell medium was changed to PBS as well as the pipette medium. The dish was connected to the ground electrode via the salt bridge. Glass pipette filled with PBS was inserted into the patch electrode. A positive pressure of around 40 mmHg was applied to the pipette and soaked into the cell medium. The offset was tuned to near 0 pA when the holding potential was 0 mV. Pipette was moved to the cell, showing green-fluorescent and barely attached to the cell membrane. Then, removing the positive pressure in the pipette and changing the holding potential to −80 mV, forming a tight seal between the cell membrane and the pipette. The seal resistance should be >=1GQ. The sealed membrane was excised to form a patch in an inside-out configuration. The recording started with a positive holding potential.
The patch was activated by 10 nM of capsaicin to activate TRPV1 channels fully. After full activation, 20 μM of drugs (cC) was applied to test for their ability of TRPV1 inhibition. […]
Traces were collected with the pClamp10 software suite, and the patch-clamp macroscopic current was recorded. […]

Molecule | inhibitory effect on TRPV1 (relative n2/n1 ratio compared to vehicle control) (human TRPV1) | mean n2/n1 ratio (human TRPV1) | mean licking time [1] | IC50 (human TRPV1) | inhibition of TRPV1 channels in patch-clamp macroscopic current (TRPV1 channel (hTRPV1)) | further results
COc1cc(CNC(=O)CCCC/C=C/C(C)C)ccc1O [capsaicin, reference compound] | – | – | – | – | – | mean n2/n1 ratio, capsaicin group (human TRPV1; capsaicin alone, HEK293 cells transfected with human TRPV1): 0.254; mean licking time, capsaicin alone group ([1]; capsaicin alone injected into right hind paw (positive control)): over 50 seconds
CC(=O)Cc1cc2c(c(O)c1C(=O)O)-c1c(c(O)c3oc4c(O[C@@H]5OC(C(=O)O)=C[C@H](O)[C@H]5O)cccc4c(=O)c3c1O)CC2 [cA, chrexanthomycin A] | inhibitory effects on TRPV1 | – | – | – | – | –
Oc1cc2c(cc1O)CN(C(=S)NCCc1ccc(Cl)cc1)CCC2 [capsazepine, reference compound] | – | 0.0667 | 18 s | – | – | –
chrexanthomycin C [cC] | inhibitory effects on TRPV1; also recorded: lowest relative n2/n1 ratio | 0.0307 | 19 s | 750 to 1000 nM | effectively inhibit TRPV1 channels | average relative macroscopic current after drug addition (TRPV1 channel (hTRPV1); fully capsaicin-activated state (10 nM capsaicin), 20 μM drug, inside-out patch): 0.285; efficacy in blocking capsaicin-induced pain sensation relative to capsazepine ([1]; mouse model, ANOVA with post hoc test): as effective as capsazepine
C[C@@]1(O)Cc2cc3c(c(O)c2C(=O)O1)-c1c(c(O)c(O)c2c(=O)c4cccc(O[C@@H]5OC(C(=O)O)=C[C@H](O)[C@H]5O)c4oc12)CC3 [cF, chrexanthomycin F] | inhibitory effects on TRPV1 | 0.068 | – | > 2000 nM | effectively inhibit TRPV1 channels | –
COc1c2c(c(O)c3c(=O)c4cccc(O[C@@H]5OC(C(=O)O)=C[C@H](O)[C@H]5O)c4oc13)-c1c(cc(CC(C)=O)c(C(=O)O)c1O)CC2 [cB, chrexanthomycin B] | inhibitory effects on TRPV1 | – | – | – | – | –
